Here are results for 5 molecules from patent publication US20240351996A1, “CDK19-SELECTIVE INHIBITORS, AND METHODS OF USE THEREOF” (CZ BIOHUB SF, LLC, priority 2022, published 2024).

For orientation: IC50 means the concentration that inhibits the measured activity by half. Low values mean inhibition by little substance, high ones a need for much substance.

Molecules are shown by their SMILES.

The subject of series [1] is MDA-MB-231 TNBC cells. Briefly: Triple-negative breast cancer cell death assay (LD50). The class given is cell-based. The note with it: MDA-MB-231, 48 h treatment, live cell counts normalized to DMSO. As to the method:
(§1) Triple-Negative Breast Cancer Cell Death Assay to Measure LD50: The efficacy and selectivity of the disclosed compounds was evaluated in a TNBC cell line assay (MDA-MB-231) and/or human foreskin fibroblast 2088 cells, as was protein binding to human serum and microsomal stability of the disclosed compounds, as described herein.
(§2) Cells from a TNBC cell line (MDA-MB-231) (approximately 100,000 cells) and/or human foreskin fibroblast 2088 cells were seeded into each well of a 6-welled polystyrene treated tissue culture plate and were allowed to attach for 18 h before treatment with the test compound. Cells were then treated every 24 h with a fresh batch of media containing the test compound at one of the respective concentration(s) (Log10 Molar [C]): −5.0, −5.5, −6.0, −6.5, −7.0, −7.5 so that a complete dose-response could be calculated.
(§3) After 48 h of treatment, adherent cells were fixed with a 4% paraformaldehyde solution and stained with Hoechst 33342 nuclear dye (5 μg/mL). Each well was imaged at 10× magnification on a Keyence BZ-X710 microscope and live cell counts were performed in triplicate for each condition using automated ImageJ computational software. LD50 values represent the percentage of live cells after treatment with the test compound, which was calculated after normalization to the DMSO only treated control group.

Series [2] concerns the target CDK8 (Homo sapiens, UniProt P49336). As to the kind of experiment: LanthaScreen europium kinase binding assay (FRET displacement), CDK8.
Series [3] addresses CDK19/CycC (Homo sapiens, UniProt Q9BWU1). Briefly: LanthaScreen europium kinase binding assay (FRET displacement), CDK19. The note with it: for CDK19 Selectivity: CDK19/CDK8 selectivity based on IC50 values; for IC50: his-tagged CDK19/CycC 5 nM, tracer 10 nM, 3 h incubation. In outline: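 His-tagged CDK19/CycC (5 nM) preincubated 30 min with 10 nM Alexa Fluor 665 ATP-site tracer, 2 nM biotin anti-his antibody and 2 nM europium-streptavidin, then titrated with compound (10^−4.5 to 10^−8 M). TR-FRET (ex 317, em 620/665 nm) read after 3 h at room temperature; duplicates, three independent runs, DMSO-normalized IC50.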
Background: Time-resolved FRET reads energy transfer from a long-lived donor to a nearby acceptor.

Series [4] in a line: Liver microsome stability assay (Cyprotex), mouse. Conditions: mouse liver microsomes. Format: in vitro ADME. On the procedure:
(§4) Microsome Assay to Measure Stability: The stability of the compounds was evaluated using a liver cell microsome assay commercially available from Cyprotex (Watertown, MA) (https://www.cyprotex.com/admepk/in-vitro-metabolism/microsomal-stability).

The nature of series [5]: Liver microsome stability assay (Cyprotex), human. The class given is in vitro ADME. Conditions: human liver microsomes. As to the method: as §4
Background: Microsomes from liver hold many membrane-bound enzymes, among them those of drug oxidation.

Series [6] deals with human foreskin fibroblast 2088 cells. Briefly: Cell death assay in normal fibroblasts (LD50). The note with it: FIG. 1B. The class given is cell-based. As to the method: as §1, §2, §3

Chain of CDK19/CycC (Q9BWU1 whole entry): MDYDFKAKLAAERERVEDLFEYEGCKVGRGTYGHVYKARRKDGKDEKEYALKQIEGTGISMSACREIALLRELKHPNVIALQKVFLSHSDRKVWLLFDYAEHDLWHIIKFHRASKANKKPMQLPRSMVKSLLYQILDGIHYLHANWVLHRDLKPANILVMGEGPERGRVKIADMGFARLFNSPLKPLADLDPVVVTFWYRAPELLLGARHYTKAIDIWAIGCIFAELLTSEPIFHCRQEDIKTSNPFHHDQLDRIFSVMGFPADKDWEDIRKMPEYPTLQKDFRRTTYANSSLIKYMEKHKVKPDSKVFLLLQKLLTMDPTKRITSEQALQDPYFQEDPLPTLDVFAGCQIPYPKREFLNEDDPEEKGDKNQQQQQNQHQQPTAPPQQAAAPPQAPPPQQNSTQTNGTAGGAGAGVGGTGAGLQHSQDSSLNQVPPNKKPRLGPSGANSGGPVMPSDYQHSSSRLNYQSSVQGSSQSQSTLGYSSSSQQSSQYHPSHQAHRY
Chain of CDK19/CycC (P24863 whole entry partner): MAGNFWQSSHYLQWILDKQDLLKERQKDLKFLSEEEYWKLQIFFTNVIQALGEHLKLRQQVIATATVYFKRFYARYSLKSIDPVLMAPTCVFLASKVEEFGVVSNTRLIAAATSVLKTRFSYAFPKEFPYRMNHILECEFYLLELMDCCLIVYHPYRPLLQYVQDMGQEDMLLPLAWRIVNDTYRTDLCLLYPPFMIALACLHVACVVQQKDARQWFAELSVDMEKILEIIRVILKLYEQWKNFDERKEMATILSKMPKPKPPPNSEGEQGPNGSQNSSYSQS
Chain of CDK8 (P49336 whole entry): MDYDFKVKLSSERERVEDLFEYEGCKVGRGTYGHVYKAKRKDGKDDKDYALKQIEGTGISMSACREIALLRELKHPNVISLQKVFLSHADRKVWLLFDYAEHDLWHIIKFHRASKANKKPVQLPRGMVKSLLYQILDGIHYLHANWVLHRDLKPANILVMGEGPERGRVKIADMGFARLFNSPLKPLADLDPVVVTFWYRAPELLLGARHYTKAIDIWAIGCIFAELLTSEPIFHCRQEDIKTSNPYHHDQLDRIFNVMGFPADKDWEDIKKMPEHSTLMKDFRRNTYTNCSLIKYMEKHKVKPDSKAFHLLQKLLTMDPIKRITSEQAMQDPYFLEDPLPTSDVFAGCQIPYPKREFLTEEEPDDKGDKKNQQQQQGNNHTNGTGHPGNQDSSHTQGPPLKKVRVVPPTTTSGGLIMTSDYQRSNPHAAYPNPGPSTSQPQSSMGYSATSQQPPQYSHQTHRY
Chain of CDK8 (P24863 whole entry partner): as the sequence (P24863 whole entry partner) above

Turning to `CC(C)Cc1ccc(Nc2ncc(Nc3ccncc3OC3CCCC3)cn2)cc1` [Compound A53], the “MDA LD50” value in series [1] is given as 91 nM. Further, the IC50 in series [2] was 56 nM; in series [3], not above 2.5 nM. Further, in series [3], the “CDK19 Selectivity” value is listed as not below 22. Also, in series [4], the “Mouse Microsome Stability” value was 19 μL/min/mg protein. Further, the “Human Microsome Stability” value in series [5] came out at 36 μL/min/mg protein.
Regarding `CC(C)Cc1ccc(Nc2ncc(Nc3ccnc4ccccc34)cn2)cc1` [Compound A11], the “MDA LD50” value in series [1] is listed as 180 nM. In addition, the half-inhibitory concentration (IC50) in series [2] was 22 nM. For the same molecule, in series [3], the “CDK19 Selectivity” value is listed as 0.9 and the IC50 came out at 25 nM. Besides, the “Mouse Microsome Stability” value in series [4] amounted to 31.3 μL/min/mg protein. For the same molecule, in series [5], the “Human Microsome Stability” value is 28.7 μL/min/mg protein.
On to `Cc1cnccc1Nc1cnc(Nc2ccc(CC(C)C)cc2)nc1` [Compound A21], for which the “MDA LD50” value in series [1] was 178 nM. The IC50 in series [2] was determined as 564 nM. Also, in series [3], the “CDK19 Selectivity” value was 15 and the IC50 worked out at 38 nM. The “Mouse Microsome Stability” value in series [4] turned out to be 93.0 μL/min/mg protein. Moreover, in series [5], the “Human Microsome Stability” value turned out to be 159.0 μL/min/mg protein.
With `CNC(=O)c1cc(Nc2cnc(Nc3ccc(CC(C)C)cc3)nc2)ccn1` [Compound A47], the “concentration at which significant fibroblast cell death was observed” value in series [6] is recorded as 10,000 nM. In addition, the IC50 in series [2] is 737 nM. Moreover, in series [3], the “CDK19 Selectivity” value was found to be 2.4 and the concentration for half-maximal inhibition (IC50) worked out at 308 nM.
With `c1cc(Nc2cnc(Nc3ccc(C4CCC4)cc3)nc2)ccn1` [Compound A39], the “MDA LD50” value in series [1] amounted to 158 nM. In series [2], this molecule yielded an IC50 of 19 nM. In series [3], the “CDK19 Selectivity” value came out at 2 and the IC50 came to 9.5 nM. The “Mouse Microsome Stability” value in series [4] worked out at 38.6 μL/min/mg protein. In series [5], the “Human Microsome Stability” value is 7.6 μL/min/mg protein.
